Several values for one entry are separate records, joined by “and”; a condition that tells them apart may be missing. Identical values can stand only once. Entries after “also recorded” stand apart in the source; their conditions may differ.
Experiments:
[1] = molecular target: human deoxycytidine kinase (dCK) (Homo sapiens, UniProt P27707); assay: dCK activity with UTP as phosphate donor (PK/LDH enzymatic-coupled assay); conditions: nine dCK substrates
[2] = tested on: Mia Paca-2 pancreatic cancer cells; assay: WST-1 proliferation assay, Mia Paca-2; assay type: cell-based, human; conditions: for response to gemcitabine after pre-incubation with TKI: Mia Paca-2, gemcitabine-resistant, 10 μM TKI
[3] = tested on: canine cancer cell lines other than C2; assay: cells; conditions: Canis lupus familiaris, read-out: IC50 masitinib single agent
[4] = tested on: Abrams osteosarcoma cells; assay: Alamar Blue cell proliferation assay, Abrams; assay type: cell-based, canine
[5] = tested on: Capan-2 pancreatic cancer cells; assay: WST-1 proliferation assay, Capan-2; assay type: cell-based, human
Procedure: (§1) Cancer cell lines: Pancreatic cancer cells lines (Mia Paca-2, Panc-1, BxPC-3 and Capan-2) were obtained from Dr. Juan Iovanna (Inserm, France). Cells were maintained in RPMI (BxPC-3, Capan-2) or DMEM (Mia Paca-2, Panc-1) medium containing glutamax-1 (Lonza), supplemented with 100 U/ml penicillin/100 μg/ml streptomycin, and 10% fetal calf serum (FCS) (AbCys, Lot S02823S1800). Expression of tyrosine kinases was determined by RT-PCR using Hot Star Taq (Qiagen GmbH, Hilden, Germany) in a 2720 Thermal Cycler (Applied Biosystems).
(§2) Treatment was started with the addition of the respective drug. […] After 72 hours WST-1 reagent was added and incubated with the cells for 4 hours before absorbance measurement at 450 nm in an EL800 Universal Microplate Reader (Bio-Tek Instruments Inc.). Media alone was used as a blank and proliferation in the absence of compounds served as positive control. Results are representative of three/four experiments.

[6] = tested on: BxPC-3 pancreatic cancer cells; assay: WST-1 proliferation assay, BxPC-3; assay type: cell-based, human
Procedure: as §1, §2

[7] = tested on: Panc-1 pancreatic cancer cells; assay: WST-1 proliferation assay, Panc-1; assay type: cell-based, human; conditions: Panc-1
Procedure: as §1, §2

C2 mastocytoma cells = assay: Alamar Blue cell proliferation assay, C2; assay type: cell-based, canine
[8] = tested on: Ba/F3 cells expressing PDGFR-α; conditions: read-out: IC50, PDGF-BB-stimulated proliferation and PDGFR-α tyrosine phosphorylation; cited from earlier work
[9] = tested on: Mia Paca-2 pancreatic tumors; assay: Nog-SCID mouse model of human pancreatic cancer; assay type: in vivo, Nog-SCID mice; conditions: day 56, 28 days of treatment; control 1023
D17 osteosarcoma cells = assay: Alamar Blue cell proliferation assay, D17; assay type: cell-based, canine
[10] = tested on: CMT27 breast carcinoma cells; assay: Alamar Blue cell proliferation assay, CMT27; assay type: cell-based, canine
[11] = tested on: CMT12 breast carcinoma cells; assay: Alamar Blue cell proliferation assay, CMT12; assay type: cell-based, canine
[12] = tested on: Ba/F3 cells expressing human or mouse wild-type c-Kit; conditions: read-out: IC50, blocking stem cell factor-induced proliferation and c-Kit tyrosine phosphorylation; cited from earlier work
[13] = Canis lupus familiaris, 72 h, read-out: IC50 masitinib monotherapy
[14] = Canis lupus familiaris, Breast carcinoma cell, 72 h, read-out: IC50 masitinib monotherapy

Sequence of human deoxycytidine kinase (dCK) (P27707 whole entry): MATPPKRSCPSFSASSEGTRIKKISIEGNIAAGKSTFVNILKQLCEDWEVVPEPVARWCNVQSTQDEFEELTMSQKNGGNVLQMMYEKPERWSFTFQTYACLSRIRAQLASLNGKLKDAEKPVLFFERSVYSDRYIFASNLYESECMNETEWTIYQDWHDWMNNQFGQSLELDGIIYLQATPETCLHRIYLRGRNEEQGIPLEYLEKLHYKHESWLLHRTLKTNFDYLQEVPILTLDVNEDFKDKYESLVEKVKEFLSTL

With `Cc1cc(Nc2cc(N3CCN(C)CC3)nc(Sc3ccc(NC(=O)C4CC4)cc3)n2)[nH]n1` [tozacertib] the “activation of dCK (substrate phosphorylation)” value (“activation of dCK” below) [1] was “most active compounds; also recorded: activate dCK”.

With `CCN(CC)CCNC(=O)c1c(C)[nH]c(/C=C2\C(=O)Nc3ccc(F)cc32)c1C` [sunitinib, N-(2-diethylaminoethyl)-5-[(Z)-(5-fluoro-2-oxo-1H-indol-3-ylidene)methyl]-2,4-dimethyl-1H-pyrrole-3-carboxamide] the “activation of dCK” value [1] was “relatively little or no activity; also recorded: did not activate dCK”.

With `COc1cc(Nc2ncc(F)c(Nc3ccc4c(n3)N(COP(=O)(O)O)C(=O)C(C)(C)O4)n2)cc(OC)c1OC` [fostamatinib, [6-({5-fluoro-2-[(3,4,5-trimethoxyphenyl)amino]pyrimidin-4-yl}amino)-2,2-dimethyl-3-oxo-2,3-dihydro-4H-pyrido[3,2-b][1,4]oxazin-4-yl]methyl dihydrogen phosphate] the “activation of dCK” value [1] was “relatively little or no activity; also recorded: did not activate dCK”.

For `Cc1nc(Nc2ncc(C(=O)Nc3c(C)cccc3Cl)s2)cc(N2CCN(CCO)CC2)n1.O` [dasatinib, N-(2-chloro-6-methylphenyl)-2-[[6-[4-(2-hydroxyethyl)-1-piperazinyl]-2-methyl-4-pyrimidinyl]amino]-5-thiazole carboxamide monohydrate], the “response to gemcitabine after pre-incubation with TKI” value (shortened to “response to gemcitabine”) [2] was “did not result in an increased response” and the “cell proliferation with TKI alone” value ([2]; Mia Paca-2, imatinib 10 μM, dasatinib >0.1 μM) was “partially inhibited”.

With `Cc1ccc(NC(=O)c2ccc(CN3CCN(C)CC3)cc2)cc1Nc1nccc(-c2cccnc2)n1` [imatinib, 4-[(4-methylpiperazin-1-yl)methyl]-N-[4-methyl-3-[(4-pyridin-3-ylpyrimidin-2-yl)amino]phenyl]benzamide] the “response to gemcitabine” value [2] was “did not result in an increased response”.

For `CNC(=O)c1cc(Oc2ccc(NC(=O)Nc3ccc(Cl)c(C(F)(F)F)c3)cc2)ccn1` [sorafenib, 4-[4-[[4-chloro-3-(trifluoromethyl)phenyl]carbamoylamino]phenoxy]-N-methyl-pyridine-2-carboxamide], the “activation of dCK” value [1] was “relatively little or no activity; also recorded: did not activate dCK”.

With `Cc1cn(-c2cc(NC(=O)c3ccc(C)c(Nc4nccc(-c5cccnc5)n4)c3)cc(C(F)(F)F)c2)cn1` [nilotinib, 4-methyl-N-[3-(4-methyl-1H-imidazol-1-yl)-5-(trifluoromethyl)phenyl]-3-[(4-pyridin-3-ylpyrimidin-2-yl)amino]benzamide] the “activation of dCK” value [1] was “relatively little or no activity; also recorded: did not activate dCK”.

With `Cc1ccc(NC(=O)c2ccc(CN3CCN(C)CC3)cc2)cc1Nc1nc(-c2cccnc2)cs1` [Masitinib, 4-(4-methylpiperazin-1-ylmethyl)-N-[4-methyl-3-(4-pyridin-3ylthiazol-2-ylamino)phenyl]benzamide] the IC50 [3] was 5 to 20 µM, the “Sensitization factor (maximum)” value ([4]; Abrams, gemcitabine with masitinib 5 μM) was 18 and the IC50 [4, 13] was > 10 µM. The “synergy of masitinib with gemcitabine” value ([5]; Capan-2, gemcitabine-sensitive) was “no synergy”, the IC50 ([5]; Homo sapiens, Capan-2, 72 hours, 1% FCS, read-out: IC50, single agent) was 5 to 10 µM and the “synergy of masitinib with gemcitabine” value ([6]; BxPC-3, gemcitabine-sensitive) was “no synergy”. The IC50 ([6]; Homo sapiens, BxPC-3, 72 hours, 1% FCS, read-out: IC50, single agent) was 5 to 10 µM, the IC50 ([2]; Homo sapiens, Mia Paca-2, 72 hours, 1% FCS, read-out: IC50, single agent) was 5 to 10 µM and the “response to gemcitabine” value [2] was “able to restore sensitivity to gemcitabine”. For the same compound, the “reduction in gemcitabine IC50” value ([2]; Mia Paca-2, pre-treated with 5 and 10 μM masitinib (10 μM)) was > 400 fold and 400 fold, the IC50 ([7]; Homo sapiens, 72 hours, 1% FCS, read-out: IC50, single agent) was 5 to 10 µM and the “reduction in gemcitabine IC50” value ([7]; masitinib pre-treatment (10 μM)) was 10 fold. The “Sensitization factor (maximum)” value (C2 mastocytoma cells; C2, gemcitabine with masitinib 0.001 μM) was 1, the IC50 (C2 mastocytoma cells; [13]) was 0.03 µM and the IC50 [8] was 0.3 ± 0.005 µM. The “Tumor Volume, Median” value [9] was 865 mm^3, the IC50 (D17 osteosarcoma cells; [13]) was > 10 µM and the “Sensitization factor (maximum)” value (D17 osteosarcoma cells; D17, gemcitabine with masitinib 5 μM) was 70. The “Sensitization factor (maximum)” value ([10]; CMT27, gemcitabine with masitinib 10 μM) was >75, the IC50 [10, 14] was 8 µM and the “Sensitization factor (maximum)” value ([11]; CMT12, gemcitabine with masitinib 10 μM) was >10. The IC50 [11, 14] was 8 µM and the IC50 [12] was 0.15 ± 0.08 µM.

For `COc1cc(Nc2c(C#N)cnc3cc(OCCCN4CCN(C)CC4)c(OC)cc23)c(Cl)cc1Cl` [bosutinib, 4-[(2,4-dichloro-5-methoxyphenyl)amino]-6-methoxy-7-[3-(4-methylpiperazin-1-yl)propoxy]quinoline-3-carbonitrile], the “activation of dCK” value [1] was “most active compounds; also recorded: activate dCK”.

In the case of `C#Cc1cccc(Nc2ncnc3cc(OCCOC)c(OCCOC)cc23)c1` [erlotinib, N-(3-ethynylphenyl)-6,7-bis(2-methoxyethoxy) quinazolin-4-amine], the “activation of dCK” value [1] is reported as “relatively little or no activity”.

In the case of `Cc1[nH]c(/C=C2\C(=O)Nc3ccc(F)cc32)c(C)c1C(=O)NCCN1CCCC1` [toceranib, (Z)-5-[(5-Fluoro-2-oxo-1,2-dihydro-3H-indol-3-ylidene)methyl]-2,4-dimethyl-N-(2-pyrrolidin-1-ylethyl)-1H-pyrrole-3-carboxamide], the “activation of dCK” value [1] is reported as “relatively little or no activity; also recorded: did not activate dCK”.

For `CO[C@@H](C(=O)N1Cc2n[nH]c(NC(=O)c3ccc(N4CCN(C)CC4)cc3)c2C1)c1ccccc1` [danusertib], the “activation of dCK” value [1] was “most active compounds; also recorded: activate dCK”.
